According to US20120196918A1, “PREVENTING ISLET INFLAMMATION AND DYSFUNCTION AND MAINTAINING PROPER GLUCOSE LEVELS BY CONTROLLING eIF5A AND ITS HYPUSINATION” (priority 2009, published 2012):

Legend:
[1] = system: STZ-treated NOD/Scid-(IL-2Rγ-null) mice; test: Multiple low-dose STZ model in immune-deficient NOD/Scid-(IL-2Rγ-null) mice; format: in vivo, mouse; conditions: multiple low-dose STZ (data not shown for si-eIF5A)
Experimental: To test the role of eIF5A in cytokine-mediated islet dysfunction, efforts were made to identify a mouse model of islet inflammation. The multiple low dose streptozotocin (STZ) model, in which mice are subjected to five daily intraperitoneal doses (at 55 mg/kg body weight) of STZ, is considered to provoke local islet inflammation and cytokine release, in part through the recruitment of CD11c+ dendritic cells that release pro-inflammatory cytokines in the area of STZ-induced cellular destruction (27 and 28).
As noted, low-dose STZ-induced islet dysfunction involves at least two mechanisms: an inflammatory mechanism that is dependent upon cytokine release from immune cells and a direct toxic mechanism on the islet itself. […] Next, islets from 3 C57BL/6J mice per group 24 h after the initial STZ treatment were isolated and pooled and their iNOS content determined by immunoblot. […]
Studies in vivo: Daily STZ injections to groups of 10 week-old C57BL/6J and NOD/Scid-(IL-2Rγ-null) mice proceeded as described previously (30) at a dose of 55 mg STZ per kg mouse weight for 5 days. […] Serum was analyzed using a Luminex system (Millipore) and a mouse cytokine/chemokines Panel 1 mutliplex kit (Millipore).

iNOS = test: Cytokine-induced iNOS protein in INS-1 cells (immunoblot); format: cell-based, rat
Source text: eIF5A1 and eIF5A2 are the only proteins known to contain the unique amino acid hypusine at position 50. Hypusine is formed as a posttranslational modification of residue Lys50 in a reaction requiring spermidine and catalyzed by the sequential actions of the enzymes deoxyhypusine synthase (DHS) and deoxyhypusine hydroxylase (DOHH) (Chen, K Y, and Liu, A Y. Biochemistry and function of hypusine formation on eukaryotic initiation factor 5A. Biol Signals. 1997; 6(3):105-109). […] To further investigate the mechanism of eIF5A-regulated translation of Nos2, studies were performed following overnight incubation of cells with mimosine (an inhibitor of DOHH) and GC7 (an inhibitor of DHS). […] Similar data using GC7 were obtained in primary mouse islets (data not shown) and in human islets (FIGS. 5F and 5G).
(§1) Because GC7 is known to be inactivated by the action amine oxidases, which are abundant in serum, typical studies with GC7 in the literature have used aminoguanidine to inhibit amine oxidases (16). […] To rule out possible adverse effects of GC7 on cell viability, quantitative 2 color fluorescence analysis of live (calcein-AM-positive) and dead (ethidium homodimer-1-positive) cells were performed using fluorescence cytometry.
Cytokine and inhibitor incubation studies: For cytokine incubation assays, a 1000× cocktail of cytokines containing 5 μg/ml IL1β, 10 μg/ml TNFα, and 100 μg/ml IFNγ (all prepared in 0.1% BSA in Tris-buffered saline) was applied at 1× final concentration to groups of 50 islets or 1×10^6 INS-1 (832/13) cells for a total of 4 h at 37° C. For GC7 incubation studies, GC7 was prepared at a stock concentration of 125 mM in 10 mM acetic acid and applied to cultures of 50 islets or 1×10^6 INS-1 cells to obtain the final concentrations indicted in the figures. Where needed, GC7 was protected from amine oxidases in serum by addition of 1 mM aminoguanidine (Sigma). Cells were incubated with GC7 overnight (˜16 h) at 37° C. prior to analysis. Cells were exposed to Leptomycin B (Cayman Chemicals) for 3 hours; leptomycin B was prepared at a 1000× stock concentration of 20 μg/ml in ethanol.
Immunoblot and nitrite and iNOS assays: Whole cell extracts were resolved by electrophoresis on a 4-20% SDS-polyacrylamide gel, followed by immunoblot using anti-eIF5A1, anti-eIF5A2, anti-iNOS, anti-GFP, or anti-actin primary antibodies and fluorophore-labeled secondary antibodies. Immunoblots were visualized using the Li-Cor® Odyssey® system (Li-Cor Biosciences) and quantitated by scanning fluorometry using Odyssey Imaging v. […] Nitrite was quantitated by measuring nitric oxide-derived nitrite from INS-1 cell culture medium using the Griess reagent (Promega) according to the manufacturer's recommendations. iNOS activity was measured using a commercially available kit (Cayman).

INS-1 cells = test: Cell cycle analysis of INS-1 cells (propidium iodide cytometry); format: cell-based
Experimental: as §1
For flow cytometry studies, INS-1 cells (serum starved or pretreated with GC7 as indicated in the figures) were stained with calcein-AM and ethidium homodimer 1 (Live/Dead® kit, Invitrogen) for 30 minutes, and 30,000 cells/sample were analyzed for green (living cells) and red (dead cells) fluorescence using a FACS Calibur (BD bioscience) instrument. For cell cycle analysis, 10^6 cells were washed in PBS and fixed in ice-cold 70% ethanol for 1 hour. After washing in PBS, cells were re-suspended in Guava cell cycle reagent (Millipore) and incubated at room temperature for 30 minutes. Intercalation of propidium iodide into cellular DNA was quantitated using a FACS Calibur instrument and the data analyzed for cell cycle status using Modfit software.

| Compound | protection against glucose intolerance [1] | concentration at which inhibition of iNOS was observed (iNOS; co-incubation with 1 mM aminoguanidine) | iNOS protein after cytokines (iNOS; increasing inhibitor concentrations overnight, cytokines 4 h) | concentration required to substantially block iNOS (iNOS; without aminoguanidine) | cell cycle progression (INS-1 cells; 3 days GC7 exposure) | cell cycle progression (G1-S) (INS-1 cells; overnight GC7, any concentration) |
| --- | --- | --- | --- | --- | --- | --- |
| 5′-AACGGAAUGACUUCCAGCUGA-3′ (siSTABLE modification, further chemistry not given here) [si-eIF5A] | did not protect against glucose intolerance | – | – | – | – | – |
| NCCCCCCCN=C(N)N [GC7] | – | ~3 µM | dose-dependent attenuation | > 30 µM | cell cycle block was clearly apparent | no significant effect on cell cycle progression |
